Test results as given in patent US9458145B2, “Benzimidazole derivatives as bromodomain inhibitors” (Gilead Sciences, Inc., priority 2013, dated 2016).
Read-outs that look alike come from different tables or passages of the source.

Columns and labels:
BRD4-1 = BRD4-1 (Homo sapiens (Human), UniProt O60885); experiment: BRD4-1 Ligand KI assay (TR-FRET, Cy5 labeled ligand displacement); assay type: binding
Description: (§1) BRD4-1 Ligand KI and BRD4-2 Ligand KI Assays
(§2) Binding of the two tandem bromodomains, BRD4-I and BRD4-2, to a Cy5 labeled probe/ligand (Compound 1020-501) were measured using a homogeneous time resolved fluorescence resonance energy transfer (TR-FRET) assay.
(§3) The labeled ligand specifically binds BRD4-1 and BRD4-2 and can be displaced by a small molecule inhibitor that shares a similar or overlapping binding site. BRD4-I and BRD4-2 were expressed and purified from Escherichia coli as N-terminal His6, tagged proteins. A Eu-cryptate labeled anti-His antibody (Perkin Elmer) was used to specifically bind BRD4. […] Assays were performed in 50 mM Hepes (pH 7.5), 150 mM NaCl, 0.1 mg/ml BSA, 0.01% (v/v) Brij, 0.5% (v/v) DMSO and 10 nM labeled ligand at the following concentrations for each BRD4 isoform: 2 nM BRD4-1 and 0.5 nM BRD4-2. After an assay reaction time of 60 minutes at 25° C., binding was measured with 2 nM Eu-cryptate labeled anti-His antibody. TR-FRET signal was detected on an Envision plate reader (Ex: 320 nm; Em: 615/665 nm; 100 μs delay and 200 μs read window). […] All IC50 values represent geometric mean values of a minimum of four determinations. The IC50 values were converted to Ki values (dissociation constant for BRD4-inhibitor complex) using the Cheng and Prusoff equation for a competitive inhibitor mode of action. These assays generally produced results within 3-fold of the reported mean.

BRD4-2 = BRD4-2 (Homo sapiens (Human), UniProt O60885); experiment: BRD4-2 Ligand KI assay (TR-FRET, Cy5 labeled ligand displacement); assay type: binding
Description: as §1, §2, §3

[1] = 2 nM BRD4-1, 10 nM labeled ligand, IC50 converted to Ki by Cheng and Prusoff
[2] = 0.5 nM BRD4-2, 10 nM labeled ligand, IC50 converted to Ki by Cheng and Prusoff

| Structure (SMILES) | IC50 (BRD4-1) | IC50 (BRD4-2) | IC50 (BRD4-1; [1]) | IC50 (BRD4-2; [2]) |
| --- | --- | --- | --- | --- |
| Cc1noc(C)c1-c1cc(C(O)(c2ccccn2)c2ncccn2)c2nc(C3CC3)[nH]c2c1 (racemic) [Compound 1020-239, (R) and (S)-(2-cyclopropyl-6-(3,5-dimethylisoxazol-4-yl)-1H-benzo[d]imidazol-4-yl)(pyridin-2-yl)(pyrimidin-2-yl)methanol] | 5.9 nM | 6 nM |  |  |
| Cc1noc(C)c1-c1cc(C(O)(c2cccnn2)C2CCCO2)c2nc(C3CC3)[nH]c2c1 (single isomer, unassigned) [Compound 1020-289, (2-cyclopropyl-6-(3,5-dimethylisoxazol-4-yl)-1H-benzo[d]imidazol-4-yl)(pyridazin-3-yl)(tetrahydrofuran-2-yl)methanol] |  |  | 2 nM | 2 nM |
| Cc1noc(C)c1-c1cc(C(O)(c2cccnn2)C2CCC(C)(C)O2)c2nc(C3CC3)[nH]c2c1 (single isomer, unassigned) [Compound 1020-298, (2-cyclopropyl-6-(3,5-dimethylisoxazol-4-yl)-1H-benzo[d]imidazol-4-yl)(5,5-dimethyltetrahydrofuran-2-yl)(pyridazin-3-yl)methanol] |  |  | 5.4 nM | 3.6 nM |
